# Data taken from patent US20240368163A1, “COMPOUNDS AND METHODS FOR MODULATING SPLICING” (REMIX THERAPEUTICS INC., priority 2021, published 2024).
# Assays:
# Type in all cases: cell-based, human
# HTT [1] = experiment: Splicing RT-qPCR assay, HTT mRNA canonical junction (CJ) and alternative junction (AJ); details: Homo sapiens; for AC50: increase in AJ mRNA
# How it was run: (§1)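 A673 or K562 cells were treated 24 h at 37 °C with an 11-point 3-fold dilution series (top 10 uM final, DMSO ≤0.25%). Lysates underwent one-step RT-qPCR for canonical (CJ) and alternative (AJ) junctions; Ct normalized to GAPDH, GUSB or PPIA and DMSO control via 2^(−ΔΔCt), expressed as percentage response.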
# SMN2 = experiment: Splicing RT-qPCR panel, SMN2 canonical junction (CJ) mRNA; details: Homo sapiens, RT-qPCR panel, canonical junction mRNA; compound concentration having 50% response in CJ decrease; read-out: SMN2 IC50 (decrease in CJ mRNA levels)
# How it was run: as §1
# Target C = experiment: Splicing RT-qPCR panel, Target C canonical junction (CJ) mRNA; details: Homo sapiens, RT-qPCR panel, canonical junction mRNA; compound concentration having 50% response in CJ decrease; read-out: Target C IC50 (decrease in CJ mRNA levels)
# How it was run: as §1
# MYB = experiment: HiBiT protein abundance assay, MYB; details: Homo sapiens, K562, 24 h, Table 13A, modified K562 cells
# How it was run: (§2)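 Tagged-target degradation assay: HiBiT-modified K562 cells treated 24 h with compound, 10 concentrations up to 10 μM final. Following lysis with LgBiT and substrate, luminescence gave normalized abundance; IC50 derived by logistic interpolation at 50%.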
# HTT [2] = experiment: HiBiT protein abundance assay, HTT; details: Homo sapiens, K562, 24 h, Table 13A, modified K562 cells
# How it was run: as §2
# [3] = 24 h, A673 or K562 cells, 24 hours treatment, RT-qPCR
# [4] = RT-qPCR panel, canonical junction mRNA, compound concentration having 50% response in CJ decrease, read-out: HTT IC50 (decrease in CJ mRNA levels)
# [5] = 24 h, decrease in CJ mRNA, A673 or K562 cells, 24 hours treatment, RT-qPCR, read-out: HTT CJ IC50
Structure (SMILES),AC50 (HTT [1]; [3]),IC50 (HTT [1]; [4]),IC50 (SMN2),IC50 (Target C),IC50 (MYB),IC50 (HTT [2]),IC50 (HTT [1]; [5])
"CN(c1ccc(-c2cc(F)c(-c3cn[nH]c3)c3cn[nH]c23)nn1)[C@@H]1C[C@H]2CC(F)(F)[C@@H](C1)N2 (stereo in doubt) [Compound 378, 6,6-difluoro-N-{6-[5-fluoro-4-(1H-pyrazol-4-yl)-1H-indazol-7-yl]pyridazin-3-yl}-N-methyl-8-azabicyclo[3.2.1]octan-3-amine]",< 100 nM,< 100 nM,< 100 nM,100 to 1000 nM,100 to 1000 nM,< 100 nM,
"CN(c1ccc(-c2ccc(-c3cn[nH]c3)c3ncsc23)nn1)[C@@H]1C[C@H]2CC(F)(F)[C@@H](C1)N2 (stereo in doubt) [Compound 379, 6,6-difluoro-N-methyl-N-{6-[4-(1H-pyrazol-4-yl)-1,3-benzothiazol-7-yl]pyridazin-3-yl}-8-azabicyclo [3.2.1]octan-3-amine]",< 100 nM,< 100 nM,< 100 nM,100 to 1000 nM,100 to 1000 nM,< 100 nM,
CN(c1ccc(-c2ccc(-c3cn[nH]c3)c3cn[nH]c23)nn1)[C@@H]1C[C@H]2CC[C@@H](C1)N2 [Compound 104],1000 to 10000 nM,100 to 1000 nM,< 100 nM,100 to 1000 nM,100 to 1000 nM,< 100 nM,100 to 1000 nM
CN(c1ccc(-c2ccc(-n3cccn3)c3cn[nH]c23)nn1)[C@@H]1C[C@H]2CC[C@@H](C1)N2 [Compound 105],100 to 1000 nM,< 100 nM,< 100 nM,< 100 nM,< 100 nM,< 100 nM,
CN(c1ccc(-c2ccc(-c3cn[nH]c3)c3ncsc23)nn1)C1CC(C)(C)NC(C)(C)C1 [Compound 132],100 to 1000 nM,100 to 1000 nM,< 100 nM,100 to 1000 nM,100 to 1000 nM,100 to 1000 nM,100 to 1000 nM
CN(c1ccc(-c2ccc(-c3cn[nH]c3)c3cn[nH]c23)nn1)C1CC(C)(C)NC(C)(C)C1 [Compound 137],100 to 1000 nM,100 to 1000 nM,100 to 1000 nM,1000 to 10000 nM,100 to 1000 nM,100 to 1000 nM,100 to 1000 nM
CN(c1ccc(-c2ccc(-c3ccc(=O)n(C)c3)c3scnc23)nn1)C1CC(C)(C)NC(C)(C)C1 [Compound 178],> 10000 nM,> 10000 nM,> 10000 nM,> 10000 nM,1000 to 10000 nM,> 10000 nM,> 10000 nM
CC1(C)CC(Oc2ccc(-c3ccc(-c4cn[nH]c4)c4ncsc34)nn2)CCN1 (stereo not shown) [Compound 182],1000 to 10000 nM,1000 to 10000 nM,100 to 1000 nM,1000 to 10000 nM,100 to 1000 nM,< 100 nM,1000 to 10000 nM
c1nc2c(-c3cn[nH]c3)ccc(-c3ccc(OC4CCNCC4)nn3)c2s1 [Compound 183],100 to 1000 nM,100 to 1000 nM,100 to 1000 nM,100 to 1000 nM,100 to 1000 nM,< 100 nM,100 to 1000 nM
c1nc2c(-c3cn[nH]c3)ccc(-c3ccc(O[C@@H]4C[C@H]5CC[C@@H](C4)N5)nn3)c2s1 [Compound 184],< 100 nM,100 to 1000 nM,< 100 nM,100 to 1000 nM,100 to 1000 nM,< 100 nM,100 to 1000 nM
CC1(C)CC(Nc2ccc(-c3ccc(-c4cn[nH]c4)c4ncsc34)nn2)CC(C)(C)N1 [Compound 186],< 100 nM,< 100 nM,< 100 nM,100 to 1000 nM,100 to 1000 nM,< 100 nM,
c1nc2c(-c3cn[nH]c3)ccc(-c3ccc(N[C@@H]4C[C@H]5CC[C@@H](C4)N5)nn3)c2s1 [Compound 202],< 100 nM,< 100 nM,< 100 nM,100 to 1000 nM,100 to 1000 nM,< 100 nM,
CCN(c1ccc(C2=CC=C(c3cn[nH]c3)C3N=CSC23)nn1)[C@@H]1C[C@H]2CC[C@@H](C1)N2 (stereo partly shown) [Compound 203],100 to 1000 nM,100 to 1000 nM,< 100 nM,100 to 1000 nM,< 100 nM,< 100 nM,100 to 1000 nM
CN(c1ccc(-c2ccc(-c3cn[nH]c3)c3ncsc23)nn1)[C@H]1C[C@]2(C)CC[C@](C)(C1)N2 [Compound 204],< 100 nM,< 100 nM,< 100 nM,< 100 nM,< 100 nM,< 100 nM,
[2H]C([2H])([2H])N(c1ccc(-c2ccc(-c3cn[nH]c3)c3ncsc23)nn1)[C@@H]1C[C@H]2CC[C@@H](C1)N2 [Compound 210],< 100 nM,< 100 nM,< 100 nM,< 100 nM,< 100 nM,< 100 nM,
CN(c1ccc(-c2ccc(-c3cn[nH]c3)c3ncsc23)nn1)[C@@H]1C[C@H]2CC[C@@H](C1)N2 [Compound 213],< 100 nM,< 100 nM,< 100 nM,< 100 nM,< 100 nM,< 100 nM,
c1nc2c(-c3cn[nH]c3)ccc(-c3ccc(N[C@@H]4C[C@H]5CCC[C@@H](C4)N5)nn3)c2s1 [Compound 215],< 100 nM,< 100 nM,< 100 nM,< 100 nM,< 100 nM,< 100 nM,
Fc1cc(-c2ccc(O[C@@H]3C[C@H]4CC[C@@H](C3)N4)nn2)c2[nH]ncc2c1-c1cn[nH]c1 [Compound 216],< 100 nM,< 100 nM,< 100 nM,100 to 1000 nM,< 100 nM,< 100 nM,
CN(c1ccc(-c2ccc(-c3cn[nH]c3)c3ncsc23)nn1)[C@@H]1C[C@H]2CCC[C@@H](C1)N2 [Compound 226],< 100 nM,< 100 nM,< 100 nM,< 100 nM,< 100 nM,< 100 nM,
[2H]C([2H])([2H])N(c1ccc(-c2ccc(-c3cn[nH]c3)c3ncsc23)nn1)[C@@H]1C[C@H]2CCC[C@@H](C1)N2 [Compound 227],< 100 nM,< 100 nM,< 100 nM,< 100 nM,< 100 nM,< 100 nM,
CCN(c1ccc(-c2ccc(-c3cn[nH]c3)c3ncsc23)nn1)[C@@H]1C[C@H]2CCC[C@@H](C1)N2 [Compound 228],100 to 1000 nM,< 100 nM,< 100 nM,< 100 nM,< 100 nM,< 100 nM,
CN(c1ccc(-c2ccc(-c3cnn(C)c3)c3cn[nH]c23)nn1)C1CCNCC1 [Compound 242],> 10000 nM,> 10000 nM,1000 to 10000 nM,> 10000 nM,1000 to 10000 nM,1000 to 10000 nM,> 10000 nM
CN(c1ccc(-c2cc(F)c(-c3cnn(C)c3)c3cn[nH]c23)nn1)[C@@H]1C[C@H]2CC[C@@H](C1)N2 [Compound 291],< 100 nM,< 100 nM,< 100 nM,< 100 nM,< 100 nM,< 100 nM,
c1n[nH]cc1-c1ccc(-c2ccc(N[C@@H]3C[C@H]4CCC[C@@H](C3)N4)nn2)c2[nH]ncc12 [Compound 294],100 to 1000 nM,100 to 1000 nM,< 100 nM,100 to 1000 nM,100 to 1000 nM,100 to 1000 nM,100 to 1000 nM
